Laboratory results published in ChEMBL document CHEMBL3877268, “Development of resveratrol-curcumin hybrids as potential therapeutic agents for inflammatory lung diseases” (Eur J Med Chem, 2017).
One block for each compound: values may come before it. Calls of active or inactive are those of the source. The calls are words filed in the database; no cut-off is given here.

What was measured:
[1] = Cytotoxicity against human HL-7702 cells assessed as viable cells at 10 uM measured after 24 hrs by MTT assay; format: toxicity, cell-based; settings: l02, 24 h
[2] = test system: RAW264.7; assay: Anti-inflammatory activity in mouse RAW264.7 cells assessed as inhibition of LPS-induced TNF-alpha expression at […] pretreated for 30 mins followed by LPS challenge measured after 24 hrs by ELISA method; format: functional, cell-based
[3] = Chemical stability of the compound in phosphate buffer at pH 7.4 at 20 uM measured every 5 mins for 25 mins by UV-visible absorption spectra analysis; format: physicochemical; settings: pH 7.4, 25 min
[4] = test system: RAW264.7; assay: Anti-inflammatory activity in mouse RAW264.7 cells assessed as inhibition of LPS-induced IL-6 expression pretreated for 30 mins followed by LPS challenge measured after 24 hrs by ELISA method; format: functional, cell-based
[5] = test system: RAW264.7; assay: Anti-inflammatory activity in mouse RAW264.7 cells assessed as inhibition of LPS-induced IL-6 expression at […] pretreated for 30 mins followed by LPS challenge measured after 24 hrs by ELISA method; format: functional, cell-based
[6] = test system: Mus musculus; assay: Anti-inflammatory activity in LPS-induced C57BL/6 mouse acute lung injury model assessed as reduction in CD68-positive macrophage level in lung tissue at 5 mg/kg, ig pretreated for 7 days followed LPS challenge measured after 6 hrs by […] light microscopy; format: functional, organism-based
[7] = test system: Mus musculus; assay: Anti-inflammatory activity in LPS-induced C57BL/6 mouse acute lung injury model assessed as reduction in total protein concentration at 5 mg/kg, ig pretreated for 7 days followed LPS challenge measured after 6 hrs by BCA protein assay; format: functional, organism-based
[8] = test system: Peritoneal macrophage; assay: Anti-inflammatory activity in mouse peritoneal macrophage assessed as inhibition of LPS-induced IL-12 mRNA expression at 10 uM pretreated for 30 mins followed by LPS challenge measured after 6 hrs by q-PCR analysis; format: functional
[9] = test system: Mus musculus; assay: Anti-inflammatory activity in LPS-induced C57BL/6 mouse acute lung injury model assessed as reduction in total number of cells in bronchoalveolar lavage fluid at 5 mg/kg, ig pretreated for 7 days followed LPS challenge measured after 6 hrs by hemocytometer; format: functional, organism-based
[10] = test system: Peritoneal macrophage; assay: Anti-inflammatory activity in mouse peritoneal macrophage assessed as inhibition of LPS-induced TNF-alpha mRNA expression at 10 uM pretreated for 30 mins followed by LPS challenge measured after 6 hrs by q-PCR analysis; format: functional
[11] = test system: Mus musculus; assay: Anti-inflammatory activity in LPS-induced C57BL/6 mouse acute lung injury model assessed as reduction in number of neutrophils in bronchoalveolar lavage fluid at 5 mg/kg, ig pretreated for 7 days followed LPS challenge measured after 6 hrs by Wright-Giemsa staining based assay; format: functional, organism-based
[12] = test system: Mus musculus; assay: Anti-inflammatory activity in LPS-induced C57BL/6 mouse acute lung injury model assessed as reduction in IL-6 level in bronchoalveolar lavage fluid at 5 mg/kg, ig pretreated for 7 days followed LPS challenge measured after 6 hrs by ELISA method; format: functional, organism-based
[13] = test system: Mus musculus; assay: Anti-inflammatory activity in LPS-induced C57BL/6 mouse acute lung injury model assessed as reduction in TNF-alpha level in serum at 5 mg/kg, ig pretreated for 7 days followed LPS challenge measured after 6 hrs by ELISA method; format: functional, organism-based
[14] = test system: Mus musculus; assay: Anti-inflammatory activity in LPS-induced C57BL/6 mouse acute lung injury model assessed as reduction in IL-6 level in serum at 5 mg/kg, ig pretreated for 7 days followed LPS challenge measured after 6 hrs by ELISA method; format: functional, organism-based
[15] = test system: Mus musculus; assay: Anti-inflammatory activity in LPS-induced C57BL/6 mouse acute lung injury model assessed as reduction in lung wet/dry ratio at 5 mg/kg, ig pretreated for 7 days followed LPS challenge measured after 6 hrs; format: functional, organism-based
[16] = test system: Peritoneal macrophage; assay: Anti-inflammatory activity in mouse peritoneal macrophage assessed as inhibition of LPS-induced IL-6 expression at 10 uM pretreated for 30 mins followed by LPS challenge measured after 6 hrs by q-PCR analysis; format: functional
[17] = test system: Mus musculus; assay: Anti-inflammatory activity in LPS-induced C57BL/6 mouse acute lung injury model assessed as reduction in airspace inflammation in lung tissue at 5 mg/kg, ig pretreated for 7 days followed LPS challenge measured after 6 hrs by hematoxylin and eosin staining based light microscopy; format: functional, organism-based
[18] = test system: Mus musculus; assay: Anti-inflammatory activity in LPS-induced C57BL/6 mouse acute lung injury model assessed as reduction in TNF-alpha level in bronchoalveolar lavage fluid at 5 mg/kg, ig pretreated for 7 days followed LPS challenge measured after 6 hrs by ELISA method; format: functional, organism-based
[19] = test system: Peritoneal macrophage; assay: Anti-inflammatory activity in mouse peritoneal macrophage assessed as inhibition of LPS-induced IL-33 mRNA expression at 10 uM pretreated for 30 mins followed by LPS challenge measured after 6 hrs by q-PCR analysis; format: functional

Compound: COc1ccc(/C=C/c2cc(OC)cc(OC)c2/C=C/C(=O)/C=C/c2ccccc2Cl)cc1
Activity [1]: Non-Toxic

Stability [3]: Stable
IC50 [4]: 2.15 µM
Compound: COc1ccc(/C=C/c2cc(OC)cc(OC)c2/C=C/C(=O)/C=C/c2ccc(OCCCN(C)C)cc2)cc1
inhibition [2]: Active
inhibition [4]: Dose-dependent effect
Activity [1]: Non-Toxic
inhibition [5]: Active

Compound: C=CCOc1ccc(/C=C/C(=O)/C=C/c2c(/C=C/c3ccc(OC)cc3)cc(OC)cc2OC)cc1
Activity [1]: Non-Toxic

Compound: COc1ccc(/C=C/c2cc(OC)cc(OC)c2/C=C/C(=O)/C=C/c2ccc3c(c2OC)OCO3)cc1
Activity [1]: Non-Toxic

Compound: COc1ccc(/C=C/c2cc(OC)cc(OC)c2/C=C/C(=O)/C=C/c2ccccc2OC)cc1
Activity [1]: Non-Toxic

Stability [3]: Unstable
IC50 [4]: 4.33 µM
Compound: COc1ccc(/C=C/c2cc(OC)cc(OC)c2/C=C/C(=O)/C=C/c2ccc(C)s2)cc1
inhibition [2]: Active
inhibition [4]: Dose-dependent effect
Activity [1]: Non-Toxic
inhibition [5]: Active

Compound: COc1ccc(/C=C/c2cc(OC)cc(OC)c2/C=C/C(=O)/C=C/c2cc(C(F)(F)F)ccc2C(F)(F)F)cc1
Activity [1]: Non-Toxic

Compound: COc1ccc(/C=C/c2cc(OC)cc(OC)c2/C=C/C(=O)/C=C/c2c(OC)cc(OC)cc2OC)cc1
Activity [1]: Non-Toxic
inhibition [5]: Active

Compound: COc1ccc(/C=C/c2cc(OC)cc(OC)c2/C=C/C(=O)/C=C/c2ccccc2C(F)(F)F)cc1
inhibition [2]: Active
Activity [1]: Non-Toxic
inhibition [5]: Active

Compound: COc1ccc(/C=C/c2cc(OC)cc(OC)c2/C=C/C(=O)/C=C/c2ccc(N3CCN(C)CC3)cc2)cc1
Activity [1]: Non-Toxic

Compound: COc1ccc(/C=C/c2cc(OC)cc(OC)c2/C=C/C(=O)/C=C/c2ccc(O)c(Br)c2)cc1
Activity [1]: Non-Toxic

Compound: COc1ccc(/C=C/c2cc(OC)cc(OC)c2/C=C/C(=O)/C=C/c2ccccc2Br)cc1
Activity [1]: Non-Toxic

Stability [3]: Unstable
Compound: Oc1ccc(/C=C/c2cc(O)cc(O)c2)cc1 [RESVERATROL]

Compound: CCN(CC)c1ccc(/C=C/C(=O)/C=C/c2c(/C=C/c3ccc(OC)cc3)cc(OC)cc2OC)cc1
Activity [1]: Non-Toxic
inhibition [5]: Active

Stability [3]: Stable
IC50 [4]: 2.48 µM
Compound: COc1ccc(/C=C/c2cc(OC)cc(OC)c2/C=C/C(=O)/C=C/c2cccc(OC)c2OC)cc1
Activity [6]: Active
Activity [7]: Active
inhibition [2]: Active
inhibition [8]: Active
Activity [9]: Active
inhibition [10]: Active
Activity [11]: Active
Activity [12]: Active
Activity [13]: Active
Activity [14]: Active
inhibition [4]: Dose-dependent effect
Activity [15]: Active
inhibition [16]: Active
Activity [1]: Non-Toxic
Activity [17]: Active
Activity [18]: Active
inhibition [5]: Active
inhibition [19]: Active

Stability [3]: Stable
IC50 [4]: 3.03 µM
Compound: COc1ccc(/C=C/c2cc(OC)cc(OC)c2/C=C/C(=O)/C=C/c2ccc(OC)cc2OC)cc1
inhibition [2]: Active
inhibition [4]: Dose-dependent effect
Activity [1]: Non-Toxic
inhibition [5]: Active

Compound: COc1ccc(/C=C/c2cc(OC)cc(OC)c2/C=C/C(=O)/C=C/c2ccc(C(C)(C)C)cc2)cc1
Activity [1]: Non-Toxic

Stability [3]: Unstable
IC50 [4]: 3.9 µM
Compound: COc1ccc(/C=C/c2cc(OC)cc(OC)c2/C=C/C(=O)/C=C/c2ccccc2)cc1
inhibition [2]: Active
inhibition [4]: Dose-dependent effect
Activity [1]: Non-Toxic
inhibition [5]: Active

Compound: COc1ccc(/C=C/c2cc(OC)cc(OC)c2/C=C/C(=O)/C=C/c2ccc(OC(C)(C)C)cc2)cc1
Activity [1]: Non-Toxic

Compound: COc1ccc(/C=C/c2cc(OC)cc(OC)c2/C=C/C(=O)/C=C/c2cccc3ccccc23)cc1
Activity [1]: Non-Toxic

Compound: COc1ccc(/C=C/c2cc(OC)cc(OC)c2/C=C/C(=O)/C=C/c2ccc(O)c(OC)c2)cc1
Activity [1]: Non-Toxic

Compound: COc1ccc(/C=C/c2cc(OC)cc(OC)c2/C=C/C(=O)/C=C/c2ccc(C(F)(F)F)cc2)cc1
Activity [1]: Non-Toxic

Compound: COc1ccc(/C=C/c2cc(OC)cc(OC)c2/C=C/C(=O)/C=C/c2ccc(OC)c(Br)c2)cc1
Activity [1]: Non-Toxic
inhibition [5]: Active

Compound: COc1ccc(/C=C/c2cc(OC)cc(OC)c2/C=C/C(=O)/C=C/c2ccc(C)cc2C)cc1
Activity [1]: Non-Toxic

Compound: COc1ccc(/C=C/c2cc(OC)cc(OC)c2/C=C/C(=O)/C=C/c2cccc(C(F)(F)F)c2)cc1
Activity [1]: Non-Toxic
inhibition [5]: Active

Compound: CCOc1ccc(/C=C/C(=O)/C=C/c2c(/C=C/c3ccc(OC)cc3)cc(OC)cc2OC)cc1
Activity [1]: Non-Toxic
